The compounds below were run against T1, human GPR40 (Homo sapiens, UniProt O14842) (assay: Inositol Phosphate Turnover (IP1) Assay 2). Settings: HEK cells stably expressing human GPR40; 15,000 cells per well; compound acoustically transferred; CisBio IP-One kit.
T1 construct: expressed in transfected cells; host or cells: HEK cells stably expressing the aequorin reporter
Format: cell-based
Description: Human and mouse GPR40 stable cell-lines were generated in CHO cells stably expressing NFAT BLA (Beta-lactamase). A human GPR40 stable cell-line was generated in HEK cells stably expressing the aequorin expressing reporter. The expression plasmids were transfected using lipofectamine (Life Technologies) following manufacturer's instructions. Stable cell-lines were generated following drug selection.
Inositol Phosphate Turnover (IP1) Assay 2:
The assay was performed in 384-well format. HEK cells stably expressing human GPR40 were plated at 15,000 cells per well in growth medium (DMEM/10% fetal calf serum). Cell plates were then incubated 16 hours at 37 degrees in a 5% CO2 incubator.
Measurement of Inositol Phosphate Turnover (IP1) was performed using the CisBio IP-One kit (Part number 62IPAPEB). After the 16 hour incubation, the cells were washed with HEPES buffer and 10 ul of stimulation buffer (prepared as described in the kit) was added to each well. In a separate plate, compounds were diluted in DMSO (400-fold over the final concentration in the assay well) and 25 nl was acoustically transferred to the appropriate well in the assay cell plate. The plates were then incubated for 60 minutes at 37 degrees. 10 ul of detection buffer (also prepared as described in the IP-One kit) was added to each well and the plates were incubated for 60 minutes in the dark. The plates were then read in a Perkin Elmer EnVision or equivalent reader able to measure FRET. Fluorescent ratio of emission at 665 and 620 nm was then converted to IP1 concentration by back calculating from an IP1 standard curve prepared at the time of the assay.

T1 sequence (O14842 whole entry): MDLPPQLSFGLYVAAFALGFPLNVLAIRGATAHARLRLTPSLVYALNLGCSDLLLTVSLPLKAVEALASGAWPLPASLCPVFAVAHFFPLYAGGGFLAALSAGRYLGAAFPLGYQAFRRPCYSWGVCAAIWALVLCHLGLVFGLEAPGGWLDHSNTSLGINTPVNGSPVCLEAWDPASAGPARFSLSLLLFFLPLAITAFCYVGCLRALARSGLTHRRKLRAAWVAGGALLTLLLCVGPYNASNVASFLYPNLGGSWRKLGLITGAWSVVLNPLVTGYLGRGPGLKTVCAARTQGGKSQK

Structure (SMILES)	EC50 [nM]
COc1cc(-c2ccc(C3CCc4ccc([C@H](C5CC5)[C@H](C)C(=O)O)cc4O3)cc2CN2CC3CC2CO3)c(F)cn1 (stereo partly shown) [Example 43]	2.1
COC[C@H]1CCCN1Cc1cc(C2CCc3ccc([C@H](C4CC4)[C@H](C)C(=O)O)cc3O2)ccc1-c1cc(OC)ncc1F (stereo partly shown) [Example 44]	1.8
COc1cc(-c2ccc(C3CCc4ccc([C@H](C5CC5)[C@H](C)C(=O)O)cc4O3)cc2CN2CCCC(OC)C2)c(F)cn1 (stereo partly shown) [Example 48]	3.6
COc1cc(-c2ccc(C3CCc4ccc([C@H](C5CC5)[C@H](C)C(=O)O)cc4O3)cc2CN2CCC[C@H]2C)c(F)cn1 (stereo partly shown) [Example 50]	1.3
COc1cc(-c2ccc(C3CCc4ccc([C@H](C5CC5)[C@H](C)C(=O)O)cc4O3)cc2CN2CCOC[C@@H]2C)c(F)cn1 (stereo partly shown) [Example 51]	1
COc1cc(-c2ccc(C3CCc4ccc([C@H](C5CC5)[C@H](C)C(=O)O)cc4O3)cc2CN2CCC3(CCO3)C2)c(F)cn1 (stereo partly shown) [Example 54]	13
COc1cc(-c2ccc(C3CCc4ccc([C@H](C5CC5)[C@H](C)C(=O)O)cc4O3)cc2CN2CCC2C)c(F)cn1 (stereo partly shown) [Example 56]	7
COC[C@@H]1CC[C@@H](COC)N1Cc1cc(C2CCc3ccc([C@H](C4CC4)[C@H](C)C(=O)O)cc3O2)ccc1-c1cc(OC)ncc1F (stereo partly shown) [Example 58]	1.1
COc1cc(-c2ccc(C3CCc4ccc([C@H](C5CC5)[C@H](C)C(=O)O)cc4O3)cc2CN2[C@H](C)COC[C@H]2C)c(F)cn1 (stereo partly shown) [Example 60]	0.59
COC[C@H]1CC[C@H](COC)N1Cc1cc(C2CCc3ccc([C@H](C4CC4)[C@H](C)C(=O)O)cc3O2)ccc1-c1cc(OC)ncc1F (stereo partly shown) [Example 65]	2
COc1cc(-c2ccc(C3CCc4ccc([C@H](C5CC5)[C@H](C)C(=O)O)cc4O3)cc2CN2C3CCC2COC3)c(F)cn1 (stereo partly shown) [Example 68]	0.7
COc1cc(-c2ccc(C3CCc4ccc([C@H](C5CC5)[C@H](C)C(=O)O)cc4O3)cc2CN2C3CCC2CC3)c(F)cn1 (stereo partly shown) [Example 69]	2.6
COc1cc(-c2ccc(C3CCc4ccc([C@H](C5CC5)[C@H](C)C(=O)O)cc4O3)cc2CN2[C@H](C)CC[C@H]2C)c(F)cn1 (stereo partly shown) [Example 70]	0.5
COc1cc(-c2ccc(C3CCc4ccc([C@H](C5CC5)[C@H](C)C(=O)O)cc4O3)cc2CN2CCC2C(F)(F)F)c(F)cn1 (stereo partly shown) [Example 72]	1.2
CCOc1cc(-c2ccc(C3CCc4ccc([C@H](C5CC5)[C@H](C)C(=O)O)cc4O3)cc2CN2CCCC2)c(F)cn1 (stereo partly shown) [Example 77]	29
COc1c[nH]nc1-c1ccc([C@@H]2CCc3ccc([C@H](C4CC4)[C@H](C)C(=O)O)cc3O2)cc1CN1CCCC1 [Example 79, Sodium (2S,3R)-3-cyclopropyl-3-((S)-2-(4-(4-methoxy-1H-pyrazol-3-yl)-3-(pyrrolidin-1-ylmethyl)phenyl)chroman-7-yl)-2-methylpropanoate]	4840
COc1cc(-c2ccc([C@H]3CCc4ccc([C@H](C5CC5)[C@H](C)C(=O)O)cc4O3)cc2[C@H](C)N(C)C)c(F)cn1 [Example 80, (2S,3R)-3-cyclopropyl-3-((R)-2-(3-((S)-1-(dimethylamino)ethyl)-4-(5-fluoro-2-methoxypyridin-4-yl)phenyl)chroman-7-yl)-2-methylpropanoic acid]	11
COc1cc(-c2ccc([C@H]3CCc4ccc([C@H](C5CC5)[C@H](C)C(=O)O)cc4O3)cc2[C@@H](C)N(C)C)c(F)cn1 [Example 81, (2S,3R)-3-cyclopropyl-3-((R)-2-(3-((R)-1-(dimethylamino)ethyl)-4-(5-fluoro-2-methoxypyridin-4-yl)phenyl)chroman-7-yl)-2-methylpropanoic acid]	4
COc1cc(-c2ccc([C@H]3CCc4ccc([C@H](C5CC5)[C@H](C)C(=O)O)cc4O3)cc2[C@H](C)N(C)C)c(F)cn1 [Example 82, (2S,3R)-3-cyclopropyl-3-((R)-2-(3-((S)-1-(dimethylamino)ethyl)-4-(5-fluoro-2-methoxypyridin-4-yl)phenyl)chroman-7-yl)-2-methylpropanoic acid]	13
COc1cc(-c2ccc(C3CCc4ccc([C@H](C5CC5)[C@H](C)C(=O)O)cc4O3)cc2[C@@H](C)N(C)C)c(F)cn1 (stereo partly drawn) [Example 83, (2S,3R)-3-cyclopropyl-3-((R)-2-(3-((R)-1-(dimethylamino)ethyl)-4-(5-fluoro-2-methoxypyridin-4-yl)phenyl)chroman-7-yl)-2-methylpropanoic aid]	3
COc1cc(-c2ccc(C3CCc4ccc([C@H](C5CC5)[C@H](C)C(=O)O)cc4O3)cc2C(C)N2CCCC2)c(F)cn1 (stereo partly drawn) [Example 84, Methyl (2S,3R)-3-cyclopropyl-3-(2-(4-(5-fluoro-2-methoxypyridin-4-yl)-3-(1-(pyrrolidin-1-yl)ethyl)phenyl)chroman-7-yl)-2-methylpropanoic acid]	2
COc1cc(-c2ncc(C3CCc4ccc([C@H](C5CC5)[C@H](C)C(=O)O)cc4O3)nc2CN2CCCC2)c(F)cn1 (stereo partly drawn) [Example 110, (2S,3R)-3-cyclopropyl-3-(2-(5-(5-fluoro-2-methoxypyridin-4-yl)-6-(pyrrolidin-1-ylmethyl)pyrazin-2-yl)chroman-7-yl)-2-methylpropanoic acid]	824

Structure (SMILES)	EC50 [nM]
COC[C@@H]1CCCN1Cc1cc([C@@H]2CCc3ccc([C@H](C4CC4)[C@H](C)C(=O)O)cc3O2)ccc1-c1cc(OC)ncc1F [Example 134, (2S, 3R)-3-cyclopropyl-3-((S)-2-(4-(5-fluoro-2-methoxypyridin-4-yl)-3-(((S)-2-(methoxymethyl)pyrrolidin-1-yl)methyl)phenyl)chroman-7-yl)-2-methylpropanoic acid]	0.8
COC[C@@H]1CCCN1Cc1cc([C@H]2CCc3ccc([C@H](C4CC4)[C@H](C)C(=O)O)cc3O2)ccc1-c1cc(OC)ncc1F [Example 135]	5
COc1cc(-c2ccc([C@H]3CCc4ccc([C@H](C5CC5)[C@H](C)C(=O)O)cc4O3)cc2CN2CCC[C@@H]2C)c(F)cn1 [Example 136]	4.6
COc1cc(-c2ccc([C@H]3CCc4ccc([C@H](C5CC5)[C@H](C)C(=O)O)cc4O3)cc2CN2CCC[C@H]2C)c(F)cn1 [Example 137]	4.6
COc1cc(-c2ccc([C@@H]3CCc4ccc([C@H](C5CC5)[C@H](C)C(=O)O)cc4O3)cc2CN2CCC[C@@H]2C)c(F)cn1 [Example 140]	1.8
COc1cc(-c2ccc([C@@H]3CCc4ccc([C@H](C5CC5)[C@H](C)C(=O)O)cc4O3)cc2CN2CCC[C@H]2C)c(F)cn1 [Example 141]	1.1
COc1cc(-c2ccc([C@H]3CCc4ccc([C@H](C5CC5)[C@H](C)C(=O)O)cc4O3)cc2CN2CCCC(C)(C)C2)c(F)cn1 [Example 142]	1.1
COc1cc(-c2ccc([C@@H]3CCc4ccc([C@H](C5CC5)[C@H](C)C(=O)O)cc4O3)cc2CN2CCCC(C)(C)C2)c(F)cn1 [Example 143]	0.3
COc1cc(-c2ccc([C@H]3CCc4ccc([C@H](C5CC5)[C@H](C)C(=O)O)cc4O3)cc2CN2CCCCC23CC3)c(F)cn1 [Example 144]	0.3
CCN(CC)Cc1cc([C@H]2CCc3ccc([C@H](C4CC4)[C@H](C)C(=O)O)cc3O2)ccc1-c1cc(OC)ncc1F [Example 145]	2.7
COc1cc(-c2ccc([C@H]3CCc4ccc([C@H](C5CC5)[C@H](C)C(=O)O)cc4O3)cc2CN2CCCC2(C)C)c(F)cn1 [Example 146]	1.8
COc1cc(-c2ccc([C@H]3CCc4ccc([C@H](C5CC5)[C@H](C)C(=O)O)cc4O3)cc2CN2[C@H](C)CC[C@H]2C)c(F)cn1 [Example 147]	0.7
COc1cc(-c2ccc([C@H]3CCc4ccc([C@H](C5CC5)[C@H](C)C(=O)O)cc4O3)cc2CN2C3CCC2CC3)c(F)cn1 [Example 148]	4.2
COc1cc(-c2ccc([C@H]3CCc4ccc([C@H](C5CC5)[C@H](C)C(=O)O)cc4O3)cc2CNCC(F)(F)F)c(F)cn1 [Example 149]	2.5
COc1cc(-c2ccc([C@@H]3CCc4ccc([C@H](C5CC5)[C@H](C)C(=O)O)cc4O3)cc2CNCC(F)(F)F)c(F)cn1 [Example 150]	1
COc1cc(-c2ccc([C@@H]3CCc4ccc([C@H](C5CC5)[C@H](C)C(=O)O)cc4O3)cc2CN2CCCCC2)c(F)cn1 [Example 151]	2
COc1cc(-c2ccc([C@@H]3CCc4ccc([C@H](C5CC5)[C@H](C)C(=O)O)cc4O3)cc2CN2CCCCC2(C)C)c(F)cn1 [Example 152]	0.5
COc1cc(-c2ccc([C@@H]3CCc4ccc([C@H](C5CC5)[C@H](C)C(=O)O)cc4O3)cc2CN2CCCC[C@H]2C)c(F)cn1 [Example 153]	1.1
COc1cc(-c2ccc([C@@H]3CCc4ccc([C@H](C5CC5)[C@H](C)C(=O)O)cc4O3)cc2CN2CCCC[C@@H]2C)c(F)cn1 [Example 154]	1.3
COc1cc(-c2ccc([C@@H]3CCc4ccc([C@H](C5CC5)[C@H](C)C(=O)O)cc4O3)cc2CN2CCC(C)(C)CC2)c(F)cn1 [Example 155]	1.8
COc1cc(-c2ccc([C@H]3CCc4ccc([C@H](C5CC5)[C@H](C)C(=O)O)cc4O3)cc2CN2CCC2(C)C)c(F)cn1 [Example 156]	8.3
